Test results: US10815230B2, “Casein kinase 1 delta inhibitor” (ELECTROPHORETICS LIMITED, priority 2015, dated 2020)

Legend:
Assay in all cases: Kinase selectivity, % remaining activity
Assay type in all cases: biochemical
Details in all cases: 10 μM compound, 10 μM ATP, duplicate, read-out: % of remaining activity (relative to DMSO)
CK1g3 = CK1g3 (Homo sapiens, UniProt Q9Y6M4)
Method: (§1) A two-tier strategy to determine the selectivity of compound A was applied: first, the compound was tested at a single concentration (in duplicate) to determine the %-remaining activity of the target kinase. Subsequently, the IC50 of compound A and comparative compounds for casein kinase 1 delta were determined.
(§2) Compounds were tested in single dose duplicate mode at a concentration of 10 μM (in DMSO) and reactions were carried out at 10 μM ATP, Table 3 reports the % of remaining activity (relative to DMSO).

YES/YES1 = YES/YES1 (Homo sapiens, UniProt P07947)
Method: as §1, §2

CLK2 = CLK2 (Homo sapiens, UniProt P49760)
Method: as §1, §2

P38a/MAPK14 = P38a/MAPK14 (Homo sapiens, UniProt Q16539)
Method: as §1, §2

PIM3 = PIM3 (Homo sapiens, UniProt Q86V86)
Method: as §1, §2

ABL2/ARG = ABL2/ARG (Homo sapiens, UniProt P42684)
Method: as §1, §2

CDK5/p25 = CDK5/p25 (Homo sapiens, UniProt Q00535)
Method: as §1, §2

CK1g1 = CK1g1 (Homo sapiens, UniProt Q9HCP0)
Method: as §1, §2

EPHA2 = EPHA2 (Homo sapiens, UniProt P29317)
Method: as §1, §2

CK1e = CK1e (Homo sapiens, UniProt P49674)
Method: as §1, §2

JNK2 = JNK2 (Homo sapiens, UniProt P45984)
Method: as §1, §2

FGFR1 = FGFR1 (Homo sapiens, UniProt P11362)
Method: as §1, §2

KDR/VEGFR2 = KDR/VEGFR2 (Homo sapiens, UniProt P35968)
Method: as §1, §2

PKCb2 = PKCb2 (Homo sapiens, UniProt P05771)
Method: as §1, §2

c-Src = c-Src (Homo sapiens, UniProt P12931)
Method: as §1, §2

DAPK1 = DAPK1 (Homo sapiens, UniProt P53355)
Method: as §1, §2

GSK3B = GSK3B (Homo sapiens, UniProt P49841)
Method: as §1, §2

ROCK1 = ROCK1 (Homo sapiens, UniProt Q13464)
Method: as §1, §2

PDK1/PDPK1 = biological target: T1, PDK1/PDPK1 (Homo sapiens, UniProt O15530)
T1 sequence (O15530 1-556): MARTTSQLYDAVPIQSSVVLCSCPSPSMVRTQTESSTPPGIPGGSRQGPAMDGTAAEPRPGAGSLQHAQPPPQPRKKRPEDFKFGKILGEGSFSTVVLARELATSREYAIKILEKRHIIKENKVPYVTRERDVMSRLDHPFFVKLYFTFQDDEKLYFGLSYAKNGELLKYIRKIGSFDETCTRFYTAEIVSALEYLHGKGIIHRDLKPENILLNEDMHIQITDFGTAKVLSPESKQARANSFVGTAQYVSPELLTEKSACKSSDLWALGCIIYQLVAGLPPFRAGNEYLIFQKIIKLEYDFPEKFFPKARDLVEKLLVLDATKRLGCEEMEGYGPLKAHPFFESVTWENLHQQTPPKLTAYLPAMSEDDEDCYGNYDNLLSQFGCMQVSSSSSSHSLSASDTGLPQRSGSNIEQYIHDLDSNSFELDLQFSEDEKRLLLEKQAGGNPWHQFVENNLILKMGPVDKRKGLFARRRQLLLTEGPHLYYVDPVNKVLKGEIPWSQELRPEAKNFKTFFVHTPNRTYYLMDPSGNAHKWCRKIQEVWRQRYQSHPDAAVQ
Method: as §1, §2

EGFR = EGFR (Homo sapiens, UniProt P00533)
Method: as §1, §2

PKA = PKA (Homo sapiens, UniProt P17612)
Method: as §1, §2

LCK = LCK (Homo sapiens, UniProt P06239)
Method: as §1, §2

TNIK = TNIK (Homo sapiens, UniProt Q9UKE5)
Method: as §1, §2

RIPK2 = RIPK2 (Homo sapiens, UniProt O43353)
Method: as §1, §2

Sequence of CLK2 (P49760 whole entry): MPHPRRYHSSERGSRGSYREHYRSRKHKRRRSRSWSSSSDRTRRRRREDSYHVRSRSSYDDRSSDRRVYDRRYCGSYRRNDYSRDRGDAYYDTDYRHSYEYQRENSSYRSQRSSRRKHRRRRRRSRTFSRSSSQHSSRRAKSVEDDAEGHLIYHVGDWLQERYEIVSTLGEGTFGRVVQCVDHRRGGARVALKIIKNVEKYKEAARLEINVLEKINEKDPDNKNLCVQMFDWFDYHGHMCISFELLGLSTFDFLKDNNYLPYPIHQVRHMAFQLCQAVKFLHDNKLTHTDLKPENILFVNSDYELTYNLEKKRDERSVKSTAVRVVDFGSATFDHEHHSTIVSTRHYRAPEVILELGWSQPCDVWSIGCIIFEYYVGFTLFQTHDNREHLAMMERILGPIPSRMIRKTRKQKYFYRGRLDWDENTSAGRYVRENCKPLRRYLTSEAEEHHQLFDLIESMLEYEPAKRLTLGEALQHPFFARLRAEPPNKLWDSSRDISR
Sequence of EGFR (P00533 25-1210): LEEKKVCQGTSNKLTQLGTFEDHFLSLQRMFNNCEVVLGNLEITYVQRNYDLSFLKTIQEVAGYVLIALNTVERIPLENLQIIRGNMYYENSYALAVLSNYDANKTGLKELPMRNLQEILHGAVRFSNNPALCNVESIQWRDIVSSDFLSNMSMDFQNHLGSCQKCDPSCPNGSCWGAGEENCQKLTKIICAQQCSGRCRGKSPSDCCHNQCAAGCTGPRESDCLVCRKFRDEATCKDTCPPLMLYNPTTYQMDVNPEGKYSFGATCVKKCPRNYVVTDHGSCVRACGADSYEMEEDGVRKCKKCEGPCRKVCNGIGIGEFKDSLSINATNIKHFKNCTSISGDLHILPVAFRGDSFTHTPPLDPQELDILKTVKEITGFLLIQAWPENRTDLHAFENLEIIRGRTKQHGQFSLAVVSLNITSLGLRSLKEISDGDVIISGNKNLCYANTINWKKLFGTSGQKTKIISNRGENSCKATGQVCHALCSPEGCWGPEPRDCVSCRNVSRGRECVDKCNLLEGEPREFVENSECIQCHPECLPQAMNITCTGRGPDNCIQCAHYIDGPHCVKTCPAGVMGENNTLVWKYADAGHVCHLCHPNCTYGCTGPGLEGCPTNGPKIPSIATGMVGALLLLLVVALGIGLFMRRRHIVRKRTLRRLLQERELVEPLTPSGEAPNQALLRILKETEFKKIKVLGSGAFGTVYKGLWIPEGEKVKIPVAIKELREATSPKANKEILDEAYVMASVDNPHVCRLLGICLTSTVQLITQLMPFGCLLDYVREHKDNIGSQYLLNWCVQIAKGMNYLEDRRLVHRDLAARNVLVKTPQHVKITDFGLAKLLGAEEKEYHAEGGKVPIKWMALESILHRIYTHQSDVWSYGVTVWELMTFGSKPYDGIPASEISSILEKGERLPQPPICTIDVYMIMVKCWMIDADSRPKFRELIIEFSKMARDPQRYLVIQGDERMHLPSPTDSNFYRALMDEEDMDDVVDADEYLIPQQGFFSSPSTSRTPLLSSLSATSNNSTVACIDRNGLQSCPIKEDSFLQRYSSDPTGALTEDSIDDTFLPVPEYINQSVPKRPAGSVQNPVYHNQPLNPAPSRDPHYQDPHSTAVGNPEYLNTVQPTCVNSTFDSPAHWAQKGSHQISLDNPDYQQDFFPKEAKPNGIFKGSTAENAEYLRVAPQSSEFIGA
Sequence of ROCK1 (Q13464 whole entry): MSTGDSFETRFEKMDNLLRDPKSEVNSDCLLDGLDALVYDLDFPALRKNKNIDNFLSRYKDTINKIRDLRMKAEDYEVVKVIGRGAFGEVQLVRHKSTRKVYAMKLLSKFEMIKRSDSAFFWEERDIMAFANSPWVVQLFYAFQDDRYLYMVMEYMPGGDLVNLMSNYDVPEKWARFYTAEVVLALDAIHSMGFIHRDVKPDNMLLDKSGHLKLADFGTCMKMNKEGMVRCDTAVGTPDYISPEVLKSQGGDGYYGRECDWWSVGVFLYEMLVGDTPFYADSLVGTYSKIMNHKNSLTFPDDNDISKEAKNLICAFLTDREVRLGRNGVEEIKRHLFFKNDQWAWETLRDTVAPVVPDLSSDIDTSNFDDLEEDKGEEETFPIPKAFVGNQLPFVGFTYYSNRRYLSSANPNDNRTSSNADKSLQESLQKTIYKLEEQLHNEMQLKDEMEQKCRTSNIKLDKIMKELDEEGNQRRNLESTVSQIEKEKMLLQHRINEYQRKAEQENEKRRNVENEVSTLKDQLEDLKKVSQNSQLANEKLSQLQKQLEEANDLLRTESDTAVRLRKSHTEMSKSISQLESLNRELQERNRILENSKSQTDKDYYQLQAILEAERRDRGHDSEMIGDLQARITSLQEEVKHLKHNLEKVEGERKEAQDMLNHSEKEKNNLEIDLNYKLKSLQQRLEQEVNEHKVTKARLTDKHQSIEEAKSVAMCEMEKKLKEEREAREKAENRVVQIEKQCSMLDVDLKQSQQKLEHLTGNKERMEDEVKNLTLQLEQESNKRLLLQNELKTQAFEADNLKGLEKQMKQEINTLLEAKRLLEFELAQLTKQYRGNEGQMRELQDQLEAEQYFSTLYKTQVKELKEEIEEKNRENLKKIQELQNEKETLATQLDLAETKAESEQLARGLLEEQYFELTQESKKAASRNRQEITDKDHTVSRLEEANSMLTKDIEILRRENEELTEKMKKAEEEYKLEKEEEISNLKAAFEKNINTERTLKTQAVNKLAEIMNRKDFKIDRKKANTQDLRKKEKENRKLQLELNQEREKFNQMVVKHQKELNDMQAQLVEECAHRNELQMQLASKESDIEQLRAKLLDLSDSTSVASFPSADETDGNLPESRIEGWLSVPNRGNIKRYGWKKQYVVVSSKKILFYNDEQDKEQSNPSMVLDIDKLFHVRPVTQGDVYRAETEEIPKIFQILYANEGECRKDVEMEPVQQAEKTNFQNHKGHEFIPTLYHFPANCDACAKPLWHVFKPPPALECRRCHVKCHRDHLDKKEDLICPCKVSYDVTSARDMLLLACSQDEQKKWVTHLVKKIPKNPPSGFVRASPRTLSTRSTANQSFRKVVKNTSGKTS
Sequence of PKCb2 (P05771 1-673 isoform P05771-2): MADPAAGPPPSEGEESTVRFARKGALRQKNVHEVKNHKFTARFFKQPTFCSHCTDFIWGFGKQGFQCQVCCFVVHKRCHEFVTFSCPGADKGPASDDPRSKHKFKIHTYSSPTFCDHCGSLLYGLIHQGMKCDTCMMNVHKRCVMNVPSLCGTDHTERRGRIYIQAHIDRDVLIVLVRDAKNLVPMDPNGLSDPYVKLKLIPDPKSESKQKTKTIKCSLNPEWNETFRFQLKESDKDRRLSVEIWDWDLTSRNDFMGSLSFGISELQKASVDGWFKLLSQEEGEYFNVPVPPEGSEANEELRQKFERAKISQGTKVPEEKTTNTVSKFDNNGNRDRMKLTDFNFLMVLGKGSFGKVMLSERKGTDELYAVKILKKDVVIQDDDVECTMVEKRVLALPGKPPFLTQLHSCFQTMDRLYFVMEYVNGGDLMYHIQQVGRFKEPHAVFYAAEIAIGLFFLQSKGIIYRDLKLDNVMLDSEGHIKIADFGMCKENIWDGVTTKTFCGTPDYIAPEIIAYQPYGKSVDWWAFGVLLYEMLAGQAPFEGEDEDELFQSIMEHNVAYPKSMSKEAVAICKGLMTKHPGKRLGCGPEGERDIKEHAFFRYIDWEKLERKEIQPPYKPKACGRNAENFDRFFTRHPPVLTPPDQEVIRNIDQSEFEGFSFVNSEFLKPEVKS
Sequence of c-Src (P12931 whole entry, species assumed): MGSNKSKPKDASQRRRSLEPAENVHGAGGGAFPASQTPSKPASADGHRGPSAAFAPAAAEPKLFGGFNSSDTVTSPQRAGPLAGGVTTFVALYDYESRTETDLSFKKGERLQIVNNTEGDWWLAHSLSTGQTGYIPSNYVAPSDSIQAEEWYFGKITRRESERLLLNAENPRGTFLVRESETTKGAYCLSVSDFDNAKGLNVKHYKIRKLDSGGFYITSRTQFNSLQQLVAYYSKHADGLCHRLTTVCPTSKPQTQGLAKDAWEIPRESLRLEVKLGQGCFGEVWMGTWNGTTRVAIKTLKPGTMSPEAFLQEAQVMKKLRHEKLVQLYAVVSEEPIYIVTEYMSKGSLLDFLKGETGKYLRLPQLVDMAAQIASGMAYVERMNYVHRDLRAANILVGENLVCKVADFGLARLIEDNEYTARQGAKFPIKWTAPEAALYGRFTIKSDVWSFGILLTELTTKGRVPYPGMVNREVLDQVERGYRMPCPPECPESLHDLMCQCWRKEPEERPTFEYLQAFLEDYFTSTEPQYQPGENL
Sequence of RIPK2 (O43353 whole entry): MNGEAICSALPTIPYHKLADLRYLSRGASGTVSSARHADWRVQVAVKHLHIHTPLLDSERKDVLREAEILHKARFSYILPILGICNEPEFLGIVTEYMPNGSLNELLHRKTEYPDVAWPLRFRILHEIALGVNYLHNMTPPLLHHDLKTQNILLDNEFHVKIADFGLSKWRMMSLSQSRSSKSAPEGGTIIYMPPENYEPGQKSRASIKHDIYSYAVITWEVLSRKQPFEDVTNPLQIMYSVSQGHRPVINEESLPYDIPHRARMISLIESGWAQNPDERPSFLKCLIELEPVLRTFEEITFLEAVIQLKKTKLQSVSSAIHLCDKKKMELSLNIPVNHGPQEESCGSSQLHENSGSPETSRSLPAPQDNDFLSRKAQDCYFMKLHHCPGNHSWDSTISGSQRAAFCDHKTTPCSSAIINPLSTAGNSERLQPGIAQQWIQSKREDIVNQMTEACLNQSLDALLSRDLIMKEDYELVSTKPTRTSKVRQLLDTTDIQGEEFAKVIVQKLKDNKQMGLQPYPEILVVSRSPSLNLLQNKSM

- remaining activity at 10 µM (CK1g3): 88.9%
- remaining activity at 10 µM (YES/YES1): 15.5%
- remaining activity at 10 µM (CLK2): 105%
- remaining activity at 10 µM (P38a/MAPK14): 71.2%
- remaining activity at 10 µM (PIM3): 116%
- remaining activity at 10 µM (ABL2/ARG): 68.4%
- remaining activity at 10 µM (CDK5/p25): 97.7%
- remaining activity at 10 µM (CK1g1): 85.1%
- remaining activity at 10 µM (EPHA2): 39%
- remaining activity at 10 µM (CK1e): 3%
- remaining activity at 10 µM (JNK2): 96.5%
- remaining activity at 10 µM (FGFR1): 80.8%
- remaining activity at 10 µM (KDR/VEGFR2): 83.1%
- remaining activity at 10 µM (PKCb2): 88.5%
- remaining activity at 10 µM (c-Src): 44%
- remaining activity at 10 µM (DAPK1): 92.5%
- remaining activity at 10 µM (GSK3B): 114%
- remaining activity at 10 µM (ROCK1): 95.2%
- remaining activity at 10 µM (PDK1/PDPK1): 103%
- remaining activity at 10 µM (EGFR): 68.8%
- remaining activity at 10 µM (PKA): 83%
- remaining activity at 10 µM (LCK): 19.9%
- remaining activity at 10 µM (TNIK): 89.7%
- remaining activity at 10 µM (RIPK2): 47.6%
SMILES: Nc1ncnc2c1c(COc1cccc(Cl)c1)nn2C1CCOCC1 [PF4800567, 3-[(3-Chlorophenoxy)methyl]-1-(tetrahydro-2H-pyran-4-yl)-1H-pyrazolo[3,4-d]pyrimidin-4-amine]
